From patent US20090214529A9, “KINESIN INHIBITORS” (TaiGen Biotechnology Co., Ltd., priority 2007, published 2009) come the findings set out here.

As a reminder, the IC50 is the concentration that gives 50% inhibition.

In the assay the test system is tumor cell. As to the kind of experiment: Cytotoxicity assay (MTS). The class given is cell-based. As to conditions: 72 h; incubation for three days; read-out: IC50, tumor cell growth inhibition (MTS). The protocol:
The efficacy of a test compound in inhibiting tumor cell growth was analyzed using a MTS assay. The MTS assay is a calorimetric method for the determination of viable cells in proliferation by using a tetrazolium compound (3-(4,5-dimethylthiazol-2-yl)-5-(3-[…])-2-(4-sulfophenyl)-2H-tetrazolium, inner salt; MTS) and an electron-coupling agent (phenazine methosulfate; PMS). The MTS reagent is converted by dehydrogenase enzymes in metabolically active cells into a formazan that is soluble in a tissue culture medium.
In this assay, tumor cell suspensions (30 μl/well) were seeded into 384-well flat-bottomed tissue culture plates at an appropriate density overnight. A fresh medium (3 μl/well) containing varying concentrations of a test compound or vehicle was added to the culture followed by incubation for three days. At the end of the incubation, all plates were processed simultaneously as follows: The culture medium was aspirated, a MTS cell proliferation assay (Promega) solution (30 μl/well) was added, and the plates were incubated at 37° C. for about 2 hours. Absorbance (a parameter proportional to the cell mass) was measured at 490 nm using a Multiskan (Thermo Electron Corporation, Waltham, Mass.). Inhibition effects were expressed as corrected T/C values for each test compound according to the following equation:
T/C=(T−Blank)/(C−Blank)×100(%),
where T is the mean absorbance of the treated cells, C is the mean absorbance of the controls, and Blank is the mean absorbance of the cell free well.
`Cc1ccc(C(=O)N(CCN)C(c2nc3c(oc4ccc(F)cc43)c(=O)n2Cc2ccc(C(=O)NC(C)C)o2)C(C)C)cc1` (stereo not drawn) [Compound 119]: the 50% inhibitory concentration (IC50) was < 30 µM.

In the case of `Cc1ccc(C(=O)N(CCN)C(c2nc3c(oc4ccc(F)cc43)c(=O)n2Cc2ccc(C(=O)NCC(F)F)s2)C(C)C)cc1` (stereo not drawn) [Compound 120], the half-inhibitory concentration (IC50) is < 30 µM.

Regarding `C#CCNC(=O)c1ccc(Cn2c(C(C(C)C)N(CCN)C(=O)c3ccc(C)cc3)nc3c(oc4ccc(F)cc43)c2=O)s1` (stereo not drawn) [Compound 121], the 50% inhibitory concentration (IC50) was < 30 µM.

For `Cc1ccc(C(=O)N(CCN)C(c2nc3c(oc4ccc(F)cc43)c(=O)n2Cc2cccc(Cl)c2)C(C)C)cc1` (stereo not drawn) [Compound 122], the IC50 was < 30 µM.

As to `Cc1ccc(Cn2c(C(C(C)C)N(CCN)C(=O)c3ccc(C)cc3)nc3c(oc4ccc(F)cc43)c2=O)cc1` (stereo not drawn) [Compound 123], the IC50 is < 30 µM.

On to `Cc1ccc(C(=O)N(CCN)C(c2nc3c(oc4ccc(F)cc43)c(=O)n2Cc2cccc(Br)c2)C(C)C)cc1` (stereo not drawn) [Compound 124], for which the IC50 is < 30 µM.

As to `Cc1ccc(C(=O)N(CCN)C(c2nc3c(oc4ccc(Cl)cc43)c(=O)n2Cc2ccco2)C(C)C)cc1` (stereo not drawn) [Compound 125], the IC50 was < 30 µM.

`Cc1ccc(C(=O)N(CCN)C(c2nc3c(oc4ccc(Cl)cc43)c(=O)n2Cc2ccoc2)C(C)C)cc1` (stereo not drawn) [Compound 126]: the IC50 is < 30 µM.

Consider `Cc1ccc(C(=O)N(CCN)C(c2nc3c(oc4ccc(F)cc43)c(=O)n2Cc2ccco2)C(C)C)cc1` (stereo not drawn) [Compound 127], for which the IC50 is < 30 µM.

On to `Cc1ccc(C(=O)N(CCN)C(c2nc3c(oc4ccc(F)cc43)c(=O)n2Cc2ccoc2)C(C)C)cc1` (stereo not drawn) [Compound 128], for which the IC50 is < 30 µM.

As for `Cc1ccc(C(=O)N(CCN)C(c2nc3c(oc4ccc(Cl)cc43)c(=O)n2Cc2cc(C#N)cs2)C(C)C)cc1` (stereo not drawn) [Compound 129], the IC50 is < 30 µM.

Regarding `Cc1ccc(C(=O)N(CCN)C(c2nc3c(oc4ccc(F)cc43)c(=O)n2Cc2ccc(CO)cc2)C(C)C)cc1` (stereo not drawn) [Compound 130], the IC50 is < 30 µM.

Regarding `Cc1ccc(C(=O)N(CCN)C(c2nc3c(oc4ccc(Cl)cc43)c(=O)n2Cc2ccc(/C=C/O)s2)C(C)C)cc1` (stereo not drawn) [Compound 134], the IC50 is < 30 µM.

Regarding `Cc1ccc(C(=O)N(CCCN)C(c2nc3c(sc4ccccc43)c(=O)n2Cc2ccccc2)C(C)C)cc1` (stereo not drawn) [Compound 135], the IC50 is < 30 µM.

As to `Cc1ccc(C(=O)N(CCCN)C(c2nc3c(sc4ccc(F)cc43)c(=O)n2Cc2ccccc2)C(C)C)cc1` (stereo not drawn) [Compound 136], the IC50 was < 30 µM.

In the case of `Cc1ccc(C(=O)N(CCCN)C(c2nc3c(sc4ccc(F)cc43)c(=O)n2Cc2ccccc2)C(C)C)cc1F` (stereo not drawn) [Compound 137], the IC50 was < 30 µM.

As to `Cc1ccc(C(=O)N(CCCN)C(c2nc3c(sc4ccccc43)c(=O)n2Cc2ccc(Cl)s2)C(C)C)cc1` (stereo not drawn) [Compound 138], the IC50 is < 30 µM.

`CC(C)C(c1nc2c(sc3ccc(F)cc32)c(=O)n1Cc1ccccc1)N(CCCN)C(=O)c1ccc(Cl)cc1` (stereo not drawn) [Compound 139]: the IC50 was < 30 µM.

Take `CC(C)C(c1nc2c(sc3ccc(F)cc32)c(=O)n1Cc1ccccc1)N(CCCN)C(=O)c1ccc(Br)cc1` (stereo not drawn) [Compound 140]: the IC50 is < 30 µM.

`CC(C)C(c1nc2c(sc3ccccc32)c(=O)n1Cc1ccc(Cl)s1)N(CCCN)C(=O)c1ccc(Br)cc1` (stereo not drawn) [Compound 141]: the IC50 was < 30 µM.

With `Cc1ccc(C(=O)N(CCCN)C(c2nc3c(sc4ccccc43)c(=O)n2Cc2ccc(Cl)s2)C(C)C)cc1F` (stereo not drawn) [Compound 142], the IC50 is < 30 µM.

As for `CC(C)C(c1nc2c(sc3ccccc32)c(=O)n1Cc1ccc(Cl)s1)N(CCCN)C(=O)c1ccc(Cl)cc1` (stereo not drawn) [Compound 143], the concentration for half-maximal inhibition (IC50) was < 30 µM.

As to `Cc1ccc(C(=O)N(CCCN)C(c2nc3c(sc4ccccc43)c(=O)n2Cc2ccc(Br)s2)C(C)C)cc1` (stereo not drawn) [Compound 144], the IC50 is < 30 µM.

As to `CC(C)C(c1nc2c(sc3ccccc32)c(=O)n1Cc1ccc(Br)s1)N(CCCN)C(=O)c1ccc(Br)cc1` (stereo not drawn) [Compound 145], the IC50 is < 30 µM.

Take `Cc1ccc(C(=O)N(CCCN)C(c2nc3c(sc4ccccc43)c(=O)n2Cc2ccc(Br)s2)C(C)C)cc1F` (stereo not drawn) [Compound 146]: the IC50 was < 30 µM.

As to `CC(C)C(c1nc2c(sc3ccccc32)c(=O)n1Cc1ccc(Br)s1)N(CCCN)C(=O)c1ccc(Cl)cc1` (stereo not drawn) [Compound 147], the IC50 is < 30 µM.

`Cc1ccc(C(=O)N(CCCN)C(c2nc3c(sc4ccccc43)c(=O)n2Cc2cccs2)C(C)C)cc1` (stereo not drawn) [Compound 148]: the IC50 was < 30 µM.

`Cc1ccc(C(=O)N(NCCN)C(c2nc3c(sc4ccccc43)c(=O)n2Cc2ccc(Br)s2)C(C)C)cc1` (stereo not drawn) [Compound 149]: the IC50 was < 30 µM.

For `CC(C)C(c1nc2n(c(=O)c1Cc1ccccc1)Cc1ccccc1-2)N(CCCN)C(=O)c1ccc(Cl)cc1` (stereo not drawn) [Compound 151], the IC50 is < 30 µM.

For the compound `Cc1ccc(C(=O)N(CCCN)C(c2nc3n(c(=O)c2Cc2ccccc2)Cc2ccccc2-3)C(C)C)cc1F` (stereo not drawn) [Compound 152], the IC50 is < 30 µM.

For `Cc1ccc(C(=O)N(CCC2(N)CCC2)C(c2nc3n(c(=O)c2Cc2ccccc2)Cc2ccccc2-3)C(C)C)cc1` (stereo not drawn) [Compound 153], the IC50 is < 30 µM.

Turning to `Cc1ccc(C(=O)N(CCCN)C(c2nc3n(c(=O)c2Cc2ccccc2)Cc2ccccc2-3)C(C)C)c(F)c1F` (stereo not drawn) [Compound 154], the IC50 was < 30 µM.

On to `CC(C)C(c1nc2n(c(=O)c1Cc1ccccc1)Cc1ccccc1-2)N(CCCN)C(=O)c1ccc(Br)cc1` (stereo not drawn) [Compound 155], for which the IC50 was < 30 µM.

Turning to `Cc1ccc(C(=O)N(CCCN)C(c2nc3c(sc4ncccc43)c(=O)n2Cc2ccccc2)C(C)C)cc1` (stereo not drawn) [Compound 156], the IC50 is < 30 µM.

On to `Cc1ccc(C(=O)N(CCCN)C(c2nc3c([nH]c4ccc(Br)cc43)c(=O)n2Cc2ccccc2)C(C)C)cc1` (stereo not drawn) [Compound 157], for which the IC50 was < 30 µM.

In the case of `Cc1ccc(C(=O)N(CCCN)C(c2nc3c([nH]c4ccccc43)c(=O)n2Cc2ccccc2)C(C)C)cc1` (stereo not drawn) [Compound 158], the IC50 was < 30 µM.

As to `CCC(c1nn2c(cc3ccccc32)c(=O)n1Cc1ccccc1)N(CCCN)C(=O)c1ccc(C)cc1` (stereo not drawn) [Compound 159], the IC50 was < 30 µM.

Turning to `Cc1ccc(C(=O)N(CCN)C(c2nc3c(oc4ccccc43)c(=O)n2Cc2ccc(Cl)s2)C(C)C)cc1` (stereo not drawn) [Compound 160], the IC50 is < 30 µM.

In the case of `Cc1ccc(C(=O)N(CCN)C(c2nc3c(oc4ccccc43)c(=O)n2Cc2cc(C)cs2)C(C)C)cc1` (stereo not drawn) [Compound 161], the IC50 was < 30 µM.

Regarding `Cc1ccc(C(=O)N(CCN)C(c2nc3c(oc4ccccc43)c(=O)n2Cc2ccc(Cl)o2)C(C)C)cc1` (stereo not drawn) [Compound 162], the concentration for half-maximal inhibition (IC50) is < 30 µM.

Regarding `Cc1ccc(C(=O)N(CCN)C(c2nc3c(oc4ccccc43)c(=O)n2Cc2ccc(C#N)s2)C(C)C)cc1` (stereo not drawn) [Compound 163], the IC50 was < 30 µM.

As for `Cc1ccc(C(=O)N(CCN)C(c2nc3c(oc4ccccc43)c(=O)n2Cc2ccc(Br)s2)C(C)C)cc1` (stereo not drawn) [Compound 164], the IC50 was < 30 µM.

With `Cc1ccc(C(=O)N(CCN)C(c2nc3c(oc4ccccc43)c(=O)n2Cc2ccc(Br)o2)C(C)C)cc1` (stereo not drawn) [Compound 165], the IC50 is < 30 µM.

Turning to `Cc1csc(Cn2c(C(C(C)C)N(CCN)C(=O)c3ccc(Cl)cc3)nc3c(oc4ccc(F)cc43)c2=O)c1` (stereo not drawn) [Compound 166], the IC50 was < 30 µM.

In the case of `Cc1csc(Cn2c(C(C(C)C)N(CCN)C(=O)c3ccc(Br)cc3)nc3c(oc4ccc(F)cc43)c2=O)c1` (stereo not drawn) [Compound 167], the IC50 was < 30 µM.
